Test results: patent US20210045385A1, “PYRIDAZINONE-SUBSTITUTED KETOXIMES AS HERBICIDES” (FMC Corporation, priority 2018, published 2021)

What was measured:
Type in all cases: in vivo
[1] = system: Italian ryegrass (Lolium mutiflorum); experiment: Test C preemergence, visual plant response rating; conditions: Test C, 0 is no effect, 100 is complete control
In short: (§1)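 Seeds sown in a loam–sand blend got a directed preemergence soil spray; postemergence plants (2–10 cm, one- to two-leaf stage) were sprayed with compound in a non-phytotoxic solvent plus surfactant. Injury was scored visually against untreated controls after about 10 d in a greenhouse on a 0–100 scale (100 = complete control).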

[2] = system: barnyardgrass (Echinochloa crus-galli); experiment: Test C preemergence, visual plant response rating; conditions: Test C, 0 is no effect, 100 is complete control
In short: as §1

[3] = system: foxtail, giant (giant foxtail, Setaria faberi); experiment: Test C preemergence, visual plant response rating; conditions: Test C, 0 is no effect, 100 is complete control
In short: as §1

kochia (Bassia scoparia) [4] = experiment: Test C preemergence, visual plant response rating; conditions: Test C, 0 is no effect, 100 is complete control
In short: as §1

[5] = system: pigweed (Amaranthus retroflexus); experiment: Test C preemergence, visual plant response rating; conditions: Test C, 0 is no effect, 100 is complete control
In short: as §1

[6] = system: ragweed (common ragweed, Ambrosia artemisiifolia); experiment: Test C preemergence, visual plant response rating; conditions: Test C, 0 is no effect, 100 is complete control
In short: as §1

[7] = system: Italian ryegrass (Lolium mutiflorum); experiment: Test C postemergence, visual plant response rating
In short: as §1

[8] = system: barnyardgrass (Echinochloa crus-galli); experiment: Test C postemergence, visual plant response rating
In short: as §1

[9] = system: blackgrass (Alopecurus myosuroides); experiment: Test C postemergence, visual plant response rating
In short: as §1

corn (Zea mays) = experiment: Test C postemergence, visual plant response rating
In short: as §1

[10] = system: foxtail, giant (giant foxtail, Setaria faberi); experiment: Test C postemergence, visual plant response rating
In short: as §1

[11] = system: galium (catchweed bedstraw, Galium aparine); experiment: Test C postemergence, visual plant response rating
In short: as §1

kochia (Bassia scoparia) [12] = experiment: Test C postemergence, visual plant response rating
In short: as §1

[13] = system: pigweed (Amaranthus retroflexus); experiment: Test C postemergence, visual plant response rating
In short: as §1

[14] = system: ragweed (common ragweed, Ambrosia artemisiifolia); experiment: Test C postemergence, visual plant response rating
In short: as §1

[15] = system: wheat (Triticum aestivum); experiment: Test C postemergence, visual plant response rating
In short: as §1

[16] = system: barnyardgrass (Echinochloa crus-galli); experiment: Test D flooded paddy test, visual plant response rating; conditions: 250 g ai/ha, scale 0 to 100 (0 no effect, 100 complete control), 13 to 15 d
In short: (§2)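 Plants grown to the 2-leaf stage; pots flooded to 3 cm above soil and compound applied directly into paddy water, depth held throughout. Kept in greenhouse 13 to 15 d, then rated visually against untreated controls on a 0–100 scale (0 no effect, 100 complete control).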

[17] = system: duck salad (Heteranthera limosa); experiment: as above; conditions: 250 g ai/ha, scale 0 to 100 (0 no effect, 100 complete control), 13 to 15 d
In short: as §2

rice (Oryza sativa) = experiment: as above; conditions: 250 g ai/ha, scale 0 to 100 (0 no effect, 100 complete control), 13 to 15 d
In short: as §2

[18] = system: sedge umbrella (small-flower umbrella sedge, Cyperus difformis); experiment: as above; conditions: 250 g ai/ha, scale 0 to 100 (0 no effect, 100 complete control), 13 to 15 d
In short: as §2

[19] = Test C, postemergence, 125 g ai/ha

SMILES	Ryegrass, Italian plant response rating (0 to 100 scale) ([1]; 31 g ai/ha)	Ryegrass, Italian plant response rating (0 to 100 scale) ([1]; 125 g ai/ha)	Barnyardgrass plant response rating (0 to 100 scale) ([2]; 31 g ai/ha)	Barnyardgrass plant response rating (0 to 100 scale) ([2]; 125 g ai/ha)	Foxtail, Giant plant response rating (0 to 100 scale) ([3]; 31 g ai/ha)	Foxtail, Giant plant response rating (0 to 100 scale) ([3]; 125 g ai/ha)	Kochia plant response rating (0 to 100 scale) (kochia (Bassia scoparia) [4]; 31 g ai/ha)	Kochia plant response rating (0 to 100 scale) (kochia (Bassia scoparia) [4]; 125 g ai/ha)	Pigweed plant response rating (0 to 100 scale) ([5]; 31 g ai/ha)	Pigweed plant response rating (0 to 100 scale) ([5]; 125 g ai/ha)	Ragweed plant response rating (0 to 100 scale) ([6]; 31 g ai/ha)	Ragweed plant response rating (0 to 100 scale) ([6]; 125 g ai/ha)	Ryegrass, Italian plant response rating (0 to 100 scale) ([7]; Postemergence, 31 g ai/ha)	Ryegrass, Italian plant response rating (0 to 100 scale) [7, 19]	Barnyardgrass plant response rating (0 to 100 scale) ([8]; Postemergence, 31 g ai/ha)	Barnyardgrass plant response rating (0 to 100 scale) [8, 19]	Blackgrass plant response rating (0 to 100 scale) ([9]; Postemergence, 31 g ai/ha)	Blackgrass plant response rating (0 to 100 scale) [9, 19]	Corn plant response rating (0 to 100 scale) (corn (Zea mays); Postemergence, 31 g ai/ha)	Corn plant response rating (0 to 100 scale) (corn (Zea mays); [19])	also measured
CO/N=C(/c1ccc(Cl)c(Cl)c1)c1c(O)c(C)nn(C)c1=O [Compound 216]	0	10	50	0	0	0	0	0	0	0	0	0	0	0	0	10	0	0	0	0	Foxtail, Giant plant response rating (0 to 100 scale) ([10]; Postemergence, 31 g ai/ha): 0; Foxtail, Giant plant response rating (0 to 100 scale) [10, 19]: 0; Galium plant response rating (0 to 100 scale) ([11]; Postemergence, 31 g ai/ha): 30; Galium plant response rating (0 to 100 scale) [11, 19]: 80; Kochia plant response rating (0 to 100 scale) (kochia (Bassia scoparia) [12]; Postemergence, 31 g ai/ha): 20; Kochia plant response rating (0 to 100 scale) (kochia (Bassia scoparia) [12]; [19]): 50; Pigweed plant response rating (0 to 100 scale) ([13]; Postemergence, 31 g ai/ha): 0; Pigweed plant response rating (0 to 100 scale) [13, 19]: 20; Ragweed plant response rating (0 to 100 scale) ([14]; Postemergence, 31 g ai/ha): 10; Ragweed plant response rating (0 to 100 scale) [14, 19]: 40; Wheat plant response rating (0 to 100 scale) ([15]; Postemergence, 31 g ai/ha): 0; Wheat plant response rating (0 to 100 scale) [15, 19]: 0; Plant response rating, Barnyardgrass (Flood) [16]: 0; Plant response rating, Ducksalad (Flood) [17]: 0; Plant response rating, Rice (Flood) (rice (Oryza sativa)): 0; Plant response rating, Sedge, Umbrella (Flood) [18]: 0
CO/N=C(\c1ccc(Cl)c(Cl)c1)c1c(O)c(C)nn(C)c1=O [Compound 217]	0	0	0	0	0	0	0	20	0	0	0	0	0	0	0	20	0	0	0	0	Foxtail, Giant plant response rating (0 to 100 scale) ([10]; Postemergence, 31 g ai/ha): 0; Foxtail, Giant plant response rating (0 to 100 scale) [10, 19]: 0; Galium plant response rating (0 to 100 scale) ([11]; Postemergence, 31 g ai/ha): 40; Galium plant response rating (0 to 100 scale) [11, 19]: 80; Kochia plant response rating (0 to 100 scale) (kochia (Bassia scoparia) [12]; Postemergence, 31 g ai/ha): 30; Kochia plant response rating (0 to 100 scale) (kochia (Bassia scoparia) [12]; [19]): 60; Pigweed plant response rating (0 to 100 scale) ([13]; Postemergence, 31 g ai/ha): 10; Pigweed plant response rating (0 to 100 scale) [13, 19]: 20; Ragweed plant response rating (0 to 100 scale) ([14]; Postemergence, 31 g ai/ha): 0; Ragweed plant response rating (0 to 100 scale) [14, 19]: 20; Wheat plant response rating (0 to 100 scale) ([15]; Postemergence, 31 g ai/ha): 0; Wheat plant response rating (0 to 100 scale) [15, 19]: 0; Plant response rating, Barnyardgrass (Flood) [16]: 0; Plant response rating, Ducksalad (Flood) [17]: 0; Plant response rating, Rice (Flood) (rice (Oryza sativa)): 0; Plant response rating, Sedge, Umbrella (Flood) [18]: 0
